Results published in ChEMBL document CHEMBL4507293 (2021).

Legend:
[1] = target: Sigma intracellular receptor 2 (Homo sapiens, UniProt Q5BJF2); test: GPCRScan assay: inhibition of Sigma 2; set-up: radioligand conc. used [nm] 5.0, parental cells HEKT
[2] = target: AP2-associated protein kinase 1 (Homo sapiens) (UniProt Q2M2I8); settings: Compound concentration 100.0 nM
[3] = system: Tyrosine-protein kinase ABL1 (Homo sapiens), P00519 [M351T]; settings: Compound concentration 100.0 nM
[4] = system: Tyrosine-protein kinase ABL1 (Homo sapiens), P00519 [Q252H]; settings: Compound concentration 100.0 nM
[5] = target: Activin receptor type-2A (Homo sapiens) (UniProt P27037); settings: Compound concentration 100.0 nM
[6] = target: Atypical kinase COQ8B, mitochondrial (Homo sapiens) (UniProt Q96D53); settings: Compound concentration 100.0 nM
[7] = target: RAC-alpha serine/threonine-protein kinase (Homo sapiens) (UniProt P31749); settings: Compound concentration 100.0 nM
[8] = target: 5'-AMP-activated protein kinase catalytic subunit alpha-1 (Homo sapiens) (UniProt Q13131); settings: Compound concentration 100.0 nM
[9] = target: Protein-tyrosine kinase 6 (Homo sapiens) (UniProt Q13882); settings: Compound concentration 100.0 nM
[10] = target: Cyclin-dependent kinase 4 (Homo sapiens) (UniProt P11802); settings: Compound concentration 100.0 nM
[11] = target: Serine/threonine-protein kinase Chk1 (Homo sapiens) (UniProt O14757); settings: Compound concentration 100.0 nM
[12] = target: Serine/threonine-protein kinase Chk2 (Homo sapiens) (UniProt O96017); settings: Compound concentration 100.0 nM
[13] = target: Megakaryocyte-associated tyrosine-protein kinase (Homo sapiens) (UniProt P42679); settings: Compound concentration 100.0 nM
[14] = target: Serine/threonine-protein kinase DCLK3 (Homo sapiens) (UniProt Q9C098); settings: Compound concentration 100.0 nM
[15] = system: Epidermal growth factor receptor (Homo sapiens), P00533 [UNDEFINED MUTATION]; settings: Compound concentration 100.0 nM
Epidermal growth factor receptor (Homo sapiens), P00533 [UNDEFINED MUTATION], sequence (P00533 whole entry, looked up, change not shown): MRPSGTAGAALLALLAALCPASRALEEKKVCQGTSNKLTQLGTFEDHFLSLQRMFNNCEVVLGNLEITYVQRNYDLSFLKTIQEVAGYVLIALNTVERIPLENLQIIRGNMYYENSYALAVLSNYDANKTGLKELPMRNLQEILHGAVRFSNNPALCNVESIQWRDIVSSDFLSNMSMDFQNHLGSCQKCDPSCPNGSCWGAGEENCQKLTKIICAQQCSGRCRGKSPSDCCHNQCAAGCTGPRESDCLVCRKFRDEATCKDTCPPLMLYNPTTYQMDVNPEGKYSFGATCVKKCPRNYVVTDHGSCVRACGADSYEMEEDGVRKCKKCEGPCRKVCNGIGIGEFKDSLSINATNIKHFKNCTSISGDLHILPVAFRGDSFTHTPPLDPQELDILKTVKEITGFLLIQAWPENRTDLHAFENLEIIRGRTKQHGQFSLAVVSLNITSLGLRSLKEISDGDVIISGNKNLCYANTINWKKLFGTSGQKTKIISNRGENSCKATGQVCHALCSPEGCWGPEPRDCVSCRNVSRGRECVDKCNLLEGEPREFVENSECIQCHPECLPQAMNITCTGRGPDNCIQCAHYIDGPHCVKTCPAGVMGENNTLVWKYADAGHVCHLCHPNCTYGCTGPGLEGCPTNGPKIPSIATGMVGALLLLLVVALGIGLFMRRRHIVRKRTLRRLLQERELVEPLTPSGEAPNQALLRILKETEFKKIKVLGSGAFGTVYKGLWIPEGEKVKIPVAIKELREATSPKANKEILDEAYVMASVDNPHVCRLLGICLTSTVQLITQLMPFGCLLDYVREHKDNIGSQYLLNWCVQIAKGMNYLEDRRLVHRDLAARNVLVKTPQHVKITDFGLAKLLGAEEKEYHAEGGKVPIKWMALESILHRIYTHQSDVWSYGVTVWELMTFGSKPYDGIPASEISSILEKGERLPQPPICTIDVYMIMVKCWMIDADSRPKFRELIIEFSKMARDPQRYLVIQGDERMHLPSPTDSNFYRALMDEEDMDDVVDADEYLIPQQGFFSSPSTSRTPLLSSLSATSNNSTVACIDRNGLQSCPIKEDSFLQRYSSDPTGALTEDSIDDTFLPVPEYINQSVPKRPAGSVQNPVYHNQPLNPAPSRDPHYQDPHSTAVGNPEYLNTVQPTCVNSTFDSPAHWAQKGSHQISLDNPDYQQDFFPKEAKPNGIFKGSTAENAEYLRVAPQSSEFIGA

[16] = target: Ephrin type-A receptor 4 (Homo sapiens) (UniProt P54764); settings: Compound concentration 100.0 nM
[17] = target: Receptor tyrosine-protein kinase erbB-3 (Homo sapiens) (UniProt P21860); settings: Compound concentration 100.0 nM
[18] = target: Mitogen-activated protein kinase 6 (Homo sapiens) (UniProt Q16659); settings: Compound concentration 100.0 nM
[19] = target: Focal adhesion kinase 1 (Homo sapiens) (UniProt Q05397); settings: Compound concentration 100.0 nM
[20] = system: Receptor-type tyrosine-protein kinase FLT3 (Homo sapiens), P36888 [K663Q]; settings: Compound concentration 100.0 nM
[21] = target: Tyrosine-protein kinase HCK (Homo sapiens) (UniProt P08631); settings: Compound concentration 100.0 nM
[22] = target: Mast/stem cell growth factor receptor Kit (Homo sapiens) (UniProt P10721); settings: Compound concentration 100.0 nM
Mast/stem cell growth factor receptor Kit (Homo sapiens), sequence (P10721 whole entry): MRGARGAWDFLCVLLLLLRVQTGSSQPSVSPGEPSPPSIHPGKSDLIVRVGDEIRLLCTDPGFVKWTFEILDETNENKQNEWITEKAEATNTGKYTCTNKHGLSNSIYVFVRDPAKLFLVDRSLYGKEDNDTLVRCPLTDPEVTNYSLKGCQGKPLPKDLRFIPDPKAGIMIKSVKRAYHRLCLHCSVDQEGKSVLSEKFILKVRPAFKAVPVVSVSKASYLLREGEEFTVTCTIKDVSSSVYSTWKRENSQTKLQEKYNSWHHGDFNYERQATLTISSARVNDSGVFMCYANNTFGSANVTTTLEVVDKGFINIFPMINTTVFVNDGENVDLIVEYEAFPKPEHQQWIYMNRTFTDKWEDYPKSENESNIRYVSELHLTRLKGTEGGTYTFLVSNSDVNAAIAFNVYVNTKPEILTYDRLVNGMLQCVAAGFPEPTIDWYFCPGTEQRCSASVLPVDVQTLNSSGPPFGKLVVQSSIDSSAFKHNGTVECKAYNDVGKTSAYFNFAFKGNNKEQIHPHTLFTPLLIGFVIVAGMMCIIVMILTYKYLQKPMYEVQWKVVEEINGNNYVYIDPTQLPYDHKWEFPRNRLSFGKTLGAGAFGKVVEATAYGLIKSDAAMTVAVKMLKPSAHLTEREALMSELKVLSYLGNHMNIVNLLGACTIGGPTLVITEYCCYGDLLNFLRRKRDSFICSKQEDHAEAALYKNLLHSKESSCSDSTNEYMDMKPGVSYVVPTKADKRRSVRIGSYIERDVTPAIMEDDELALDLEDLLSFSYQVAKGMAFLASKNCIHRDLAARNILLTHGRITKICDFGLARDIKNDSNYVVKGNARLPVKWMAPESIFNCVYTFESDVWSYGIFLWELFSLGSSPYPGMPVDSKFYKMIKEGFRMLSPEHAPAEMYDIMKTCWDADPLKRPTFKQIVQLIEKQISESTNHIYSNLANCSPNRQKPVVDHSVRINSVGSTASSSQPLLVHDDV

[23] = system: Mast/stem cell growth factor receptor Kit (Homo sapiens), P10721 [V559D]; settings: Compound concentration 100.0 nM
Mast/stem cell growth factor receptor Kit (Homo sapiens), P10721 [V559D], sequence (P10721 whole entry V559D): as the sequence (P10721 whole entry) above, with V559D counted along it

[24] = target: Mitogen-activated protein kinase kinase kinase 15 (Homo sapiens) (UniProt Q6ZN16); settings: Compound concentration 100.0 nM
[25] = target: Mitogen-activated protein kinase kinase kinase 4 (Homo sapiens) (UniProt Q9Y6R4); settings: Compound concentration 100.0 nM
[26] = target: Dual specificity mitogen-activated protein kinase kinase 5 (Homo sapiens) (UniProt Q13163); settings: Compound concentration 100.0 nM
[27] = target: Serine/threonine-protein kinase MRCK alpha (Homo sapiens) (UniProt Q5VT25); settings: Compound concentration 100.0 nM
[28] = target: Serine/threonine-protein kinase 4 (Homo sapiens) (UniProt Q13043); settings: Compound concentration 100.0 nM
[29] = target: Myosin light chain kinase 2, skeletal/cardiac muscle (Homo sapiens) (UniProt Q9H1R3); settings: Compound concentration 100.0 nM
[30] = target: Serine/threonine-protein kinase NLK (Homo sapiens) (UniProt Q9UBE8); settings: Compound concentration 100.0 nM
[31] = target: Phosphatidylinositol 4-phosphate 5-kinase type-1 gamma (Homo sapiens) (UniProt O60331); settings: Compound concentration 100.0 nM
Phosphatidylinositol 4-phosphate 5-kinase type-1 gamma (Homo sapiens), sequence (O60331 whole entry): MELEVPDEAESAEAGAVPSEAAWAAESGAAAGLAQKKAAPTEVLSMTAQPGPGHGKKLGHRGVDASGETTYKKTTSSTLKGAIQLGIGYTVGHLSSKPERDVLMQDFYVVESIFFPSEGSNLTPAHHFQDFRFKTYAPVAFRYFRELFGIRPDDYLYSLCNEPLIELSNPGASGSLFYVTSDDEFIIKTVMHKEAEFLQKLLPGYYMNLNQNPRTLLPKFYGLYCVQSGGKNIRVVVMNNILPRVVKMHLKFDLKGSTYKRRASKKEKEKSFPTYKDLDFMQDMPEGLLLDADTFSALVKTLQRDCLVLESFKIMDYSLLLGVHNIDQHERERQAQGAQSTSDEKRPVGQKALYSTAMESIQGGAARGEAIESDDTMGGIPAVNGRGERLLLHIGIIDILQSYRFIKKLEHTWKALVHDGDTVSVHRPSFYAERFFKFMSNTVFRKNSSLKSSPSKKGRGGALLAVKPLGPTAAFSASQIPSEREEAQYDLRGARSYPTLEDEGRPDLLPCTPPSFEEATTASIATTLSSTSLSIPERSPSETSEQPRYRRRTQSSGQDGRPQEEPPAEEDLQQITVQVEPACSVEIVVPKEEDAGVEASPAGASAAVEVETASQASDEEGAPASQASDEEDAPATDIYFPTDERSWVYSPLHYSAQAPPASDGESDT

[32] = target: Protein kinase C delta type (Homo sapiens) (UniProt Q05655); settings: Compound concentration 100.0 nM
[33] = target: Protein kinase C epsilon type (Homo sapiens) (UniProt Q02156); settings: Compound concentration 100.0 nM
[34] = target: Protein kinase C iota type (Homo sapiens) (UniProt P41743); settings: Compound concentration 100.0 nM
[35] = target: Protein kinase C theta type (Homo sapiens) (UniProt Q04759); settings: Compound concentration 100.0 nM
[36] = target: Serine/threonine-protein kinase D1 (Homo sapiens) (UniProt Q15139); settings: Compound concentration 100.0 nM
Serine/threonine-protein kinase D1 (Homo sapiens), sequence (Q15139 whole entry): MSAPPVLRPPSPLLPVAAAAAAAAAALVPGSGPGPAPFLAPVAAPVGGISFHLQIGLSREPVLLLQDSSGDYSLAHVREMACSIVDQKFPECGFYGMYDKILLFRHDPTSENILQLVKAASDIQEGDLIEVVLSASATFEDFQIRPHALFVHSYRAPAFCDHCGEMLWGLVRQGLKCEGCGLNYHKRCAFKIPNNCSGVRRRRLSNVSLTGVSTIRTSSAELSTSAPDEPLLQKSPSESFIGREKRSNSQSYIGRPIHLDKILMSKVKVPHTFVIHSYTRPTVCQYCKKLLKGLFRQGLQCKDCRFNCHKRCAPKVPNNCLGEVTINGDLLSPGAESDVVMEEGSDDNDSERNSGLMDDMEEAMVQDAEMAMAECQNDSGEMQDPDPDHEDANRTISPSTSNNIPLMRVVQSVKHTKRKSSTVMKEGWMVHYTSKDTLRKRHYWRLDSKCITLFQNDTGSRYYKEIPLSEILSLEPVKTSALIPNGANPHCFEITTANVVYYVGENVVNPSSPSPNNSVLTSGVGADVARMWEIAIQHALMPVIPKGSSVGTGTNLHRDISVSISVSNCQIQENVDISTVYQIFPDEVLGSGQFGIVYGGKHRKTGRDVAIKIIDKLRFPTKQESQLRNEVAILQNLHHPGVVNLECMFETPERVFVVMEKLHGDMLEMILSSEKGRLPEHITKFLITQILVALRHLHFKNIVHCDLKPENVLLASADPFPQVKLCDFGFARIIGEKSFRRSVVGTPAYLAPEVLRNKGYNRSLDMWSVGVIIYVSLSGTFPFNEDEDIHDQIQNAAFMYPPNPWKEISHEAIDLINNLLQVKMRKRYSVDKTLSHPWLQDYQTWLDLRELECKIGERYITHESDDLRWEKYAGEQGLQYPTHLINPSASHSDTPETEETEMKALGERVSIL

[37] = target: Serine/threonine-protein kinase D3 (Homo sapiens) (UniProt O94806); settings: Compound concentration 100.0 nM
Serine/threonine-protein kinase D3 (Homo sapiens), sequence (O94806 whole entry): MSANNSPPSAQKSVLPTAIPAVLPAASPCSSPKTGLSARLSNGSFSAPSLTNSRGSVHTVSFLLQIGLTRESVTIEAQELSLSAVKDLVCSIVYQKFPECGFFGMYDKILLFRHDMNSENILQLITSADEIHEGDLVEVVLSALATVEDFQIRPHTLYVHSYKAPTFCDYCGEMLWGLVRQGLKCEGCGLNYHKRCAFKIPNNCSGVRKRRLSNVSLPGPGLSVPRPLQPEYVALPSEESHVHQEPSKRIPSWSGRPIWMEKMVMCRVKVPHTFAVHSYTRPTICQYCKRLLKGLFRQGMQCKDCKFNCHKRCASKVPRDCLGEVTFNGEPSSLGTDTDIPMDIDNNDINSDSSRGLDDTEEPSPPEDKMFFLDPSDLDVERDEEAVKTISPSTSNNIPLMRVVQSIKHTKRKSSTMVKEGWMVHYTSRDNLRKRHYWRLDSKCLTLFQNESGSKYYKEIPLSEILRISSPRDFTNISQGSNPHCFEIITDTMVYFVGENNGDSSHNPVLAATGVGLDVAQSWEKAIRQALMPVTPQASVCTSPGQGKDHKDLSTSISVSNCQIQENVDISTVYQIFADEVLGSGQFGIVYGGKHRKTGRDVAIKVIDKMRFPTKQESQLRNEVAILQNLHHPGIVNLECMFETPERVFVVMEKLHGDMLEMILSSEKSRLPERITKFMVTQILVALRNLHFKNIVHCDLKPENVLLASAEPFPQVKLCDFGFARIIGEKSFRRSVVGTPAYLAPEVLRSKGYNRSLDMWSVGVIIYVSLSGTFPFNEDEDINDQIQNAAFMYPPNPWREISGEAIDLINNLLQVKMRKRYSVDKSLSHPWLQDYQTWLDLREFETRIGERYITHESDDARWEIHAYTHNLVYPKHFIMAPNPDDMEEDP

[38] = target: Serine/threonine-protein kinase SIK1 (Homo sapiens) (UniProt P57059); settings: Compound concentration 100.0 nM
[39] = target: Serine/threonine-protein kinase 36 (Homo sapiens) (UniProt Q9NRP7); settings: Compound concentration 100.0 nM
[40] = target: Tyrosine-protein kinase receptor TYRO3 (Homo sapiens) (UniProt Q06418); settings: Compound concentration 100.0 nM
[41] = target: Serine/threonine-protein kinase ULK3 (Homo sapiens) (UniProt Q6PHR2); settings: Compound concentration 100.0 nM
[42] = target: Serine/threonine-protein kinase VRK2 (Homo sapiens) (UniProt Q86Y07); settings: Compound concentration 100.0 nM
[43] = target: Serine/threonine-protein kinase 25 (Homo sapiens) (UniProt O00506); settings: Compound concentration 100.0 nM
[44] = target: 5-hydroxytryptamine receptor 1B (Homo sapiens) (UniProt P28222); settings: Compound concentration 10.0 uM
[45] = target: D(3) dopamine receptor (Homo sapiens) (UniProt P35462); settings: Compound concentration 10.0 uM

Sigma intracellular receptor 2, sequence (Q5BJF2 whole entry): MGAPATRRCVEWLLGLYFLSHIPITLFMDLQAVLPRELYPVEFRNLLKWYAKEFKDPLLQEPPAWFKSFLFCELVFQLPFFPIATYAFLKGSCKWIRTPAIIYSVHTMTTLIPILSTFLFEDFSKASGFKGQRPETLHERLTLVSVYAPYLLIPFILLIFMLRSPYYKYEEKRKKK

Compound: CC(C)CC(=O)N1CCc2nc(-c3ccc(Br)cc3)nc(N(C)Cc3ccccc3)c2C1 [THPP-1-NC]
- Ki [1]: 708 nM
- residual activity [2]: 100%
- residual activity [3]: 100%
- residual activity [4]: 88%
- residual activity [5]: 97%
- residual activity [6]: 100%
- residual activity [7]: 92%
- residual activity [8]: 100%
- residual activity [9]: 100%
- residual activity [10]: 100%
- residual activity [11]: 100%
- residual activity [12]: 100%
- residual activity [13]: 100%
- residual activity [14]: 100%
- residual activity [15]: 99%
- residual activity [16]: 100%
- residual activity [17]: 73%
- residual activity [18]: 100%
- residual activity [19]: 92%
- residual activity [20]: 100%
- residual activity [21]: 94%
- residual activity [22]: 100%
- residual activity [23]: 100%
- residual activity [24]: 100%
- residual activity [25]: 100%
- residual activity [26]: 98%
- residual activity [27]: 100%
- residual activity [28]: 100%
- residual activity [29]: 96%
- residual activity [30]: 100%
- residual activity [31]: 85%
- residual activity [32]: 100%
- residual activity [33]: 100%
- residual activity [34]: 100%
- residual activity [35]: 100%
- residual activity [36]: 87%
- residual activity [37]: 100%
- residual activity [38]: 91%
- residual activity [39]: 78%
- residual activity [40]: 100%
- residual activity [41]: 89%
- residual activity [42]: 77%
- residual activity [43]: 100%
- inhibition [44]: 12.9%
- inhibition [45]: 5.44%

Compound: COCCOc1nc(-c2ccc(Cl)nc2)nc2c1CN(C(=O)c1ncn3ccccc13)CC2 [THPP-1]
- Ki [1]: 3350 nM
- residual activity [2]: 100%
- residual activity [3]: 100%
- residual activity [4]: 81%
- residual activity [5]: 98%
- residual activity [6]: 100%
- residual activity [7]: 82%
- residual activity [8]: 100%
- residual activity [9]: 100%
- residual activity [10]: 93%
- residual activity [11]: 100%
- residual activity [12]: 100%
- residual activity [13]: 100%
- residual activity [14]: 100%
- residual activity [15]: 100%
- residual activity [16]: 100%
- residual activity [17]: 65%
- residual activity [18]: 100%
- residual activity [19]: 99%
- residual activity [20]: 100%
- residual activity [21]: 100%
- residual activity [22]: 100%
- residual activity [23]: 100%
- residual activity [24]: 100%
- residual activity [25]: 100%
- residual activity [26]: 100%
- residual activity [27]: 100%
- residual activity [28]: 100%
- residual activity [29]: 94%
- residual activity [30]: 100%
- residual activity [31]: 67%
- residual activity [32]: 100%
- residual activity [33]: 89%
- residual activity [34]: 100%
- residual activity [35]: 100%
- residual activity [36]: 90%
- residual activity [37]: 94%
- residual activity [38]: 100%
- residual activity [39]: 79%
- residual activity [40]: 100%
- residual activity [41]: 81%
- residual activity [42]: 91%
- residual activity [43]: 100%
- inhibition [44]: 23.3%
- inhibition [45]: -6.15%
